According to patent publication US20050203063A1, “Proteasome pathway inhibitors and related methods” (priority 2003, published 2005):
“Also recorded” adds a separate entry of the source. Read-outs that look alike come from different tables or passages of the source.

Experiments:
Format in all cases: biochemical
[1] = tested on: cyclin-luciferase (cyc-luc) turnover, APC/C activation; assay: cyc-luc turnover in interphase Xenopus extracts induced to enter mitosis by non-degradable cyclin B; conditions: 200 μM compound; added to interphase extracts then induced to enter mitosis; average of three measurements
Protocol: (§1) FIG. 1. Functional classification of inhibitors. Compounds that scored in the initial screen were reacquired as dry powders and retested in Xenopus extracts in 4 assays at 200 μM concentration (32) as described (6). […] (A) Compounds and cyclin-luciferase were added to interphase extracts, which were then induced to enter mitosis by addition of non-degradable cyclin B. Percent inhibition of cyc-luc turnover by each compound is coded according to the grayscale shown at the bottom of the figure; specific values are available in Table 1. (B) Extracts were pre-treated with non-degradable cyclin B to allow entry into mitosis prior to addition of test compound and reporter protein. (C) Interphase extracts were treated by addition of recombinant Cdh1 to activate cyc-luc turnover. (D) Interphase extracts were treated with recombinant axin to induce turnover of β-catenin-luciferase.
(§2) The “Cmpd” column corresponds to the numbers used in FIG. 1; “Class” refers to the class of inhibitor described in FIG. 1 and the text. Columns A-D show percent inhibition in the four assays described in FIG. 1. (A) Interphase extracts (B) Mitotic extracts (C) Interphase extracts stimulated with Cdh1 (D) Degradation of a β-catenin reporter protein in interphase extracts stimulated with recombinant axin. […] “ID#” refers to the identification number of the inhibitor obtained from the NCI (prefaced by NSC) or Chembridge (prefaced by C).
Extracts were rapidly thawed and diluted to a final concentration of 75% in extract buffer (XB) just prior to assay (XB; 100 mM KCl, 0.1 mM CaCl2, 1 mM MgCl2, 10 mM potassium HEPES, pH 7.7, 50 mM sucrose). Extracts were kept on ice and supplemented with 1 mg/ml bovine ubiquitin (Sigma) unless otherwise stated. Cyc-luc expressed in reticulocyte lysate was diluted 1/200 for most assays. High-throughput screening utilized the bacterially expressed and purified cyclin-luc fusion protein, which was added to extracts at a final concentration of 0.1 μg/ml. To induce entrance into mitosis, cyclin BΔ90 protein was added to a final concentration of 10 μg/ml. For the dose response analysis, inhibitors were purchased from Calbiochem (San Diego, Calif.) and dissolved in DMSO as 10 mM stocks. Cyclin-luciferase and cyclin BΔ90 were mixed with interphase extract and placed on ice. Inhibitors were then added to extracts to yield a final DMSO concentration of 1%. 10 μl aliquots of extract were distributed into 384-well white Cliniplates (Labsystems), and cell cycle progression was initiated by warming the samples to room temperature. After 60 minutes, 30 μl of luciferin reagent (20 mM tricine pH 7.8, 470 μM D-Luciferin [Molecular Probes]), 270 μM Coenzyme A, 0.1 mM EDTA, 33 mM DTT, and 530 μM ATP) was added using a multidrop dispenser (Labsystems). Luminescence was measured on an Analyst plate reader (LJL Biosystems). The values for 3 replicates were averaged. For the dose response analysis, percent inhibition was calculated as 100*(T−M)/(I−M) where T equals the test value for the inhibitor, M equals the value in a mitotic extract lacking inhibitor, and I equals the value in an interphase extract. For certain experiments, methylated ubiquitin was added to interphase extracts at a concentration of 1 mg/ml in the presence or absence of added unmodified ubiquitin (1 mg/ml) used as competitor. Cyclin-luciferase and cyclin BΔ90 were then added. After 60 minutes, the reactions were stopped and analyzed as described above.
Dry compounds were redissolved at 20 mM concentration in DMSO, or a 50:50 water:DMSO mixture in certain cases. These compounds were then diluted ten-fold in XB and mixed thoroughly. For the assay in FIG. 1A, chilled interphase extract was mixed with cyclin BΔ90 (10 μg/ml) and cyc-luc (0.1 μg/ml) in bulk and then 27 μl of extract was pipetted to each well of a chilled 384-well plate.

[2] = biological target: T1, 20S core peptidase activity (Saccharomyces cerevisiae, UniProt P25043+P30656+P38624); assay: 20S core peptidase activity in native gel with fluorescent substrate
T1 construct: made in house; host or cells: S. cerevisiae cells expressing Flag-tagged PRE1
Protocol: FIG. 6. […] (A) Purified 26S proteasomes were preincubated with test compounds before being resolved on a native gel. Following electrophoresis, the gel was stained with Coomassie Blue. […] Same as (A), except that following electrophoresis, the gel was incubated with fluorescent substrate to determine peptidase activity, which was visualized using a UV transilluminator (9). […] (C) Untreated 26S proteasomes were resolved on a native gel. Following electrophoresis, the gel was incubated with the peptidase substrate in the presence of ubistatin.
26S proteasomes were purified from S. cerevisiae cells expressing a Flag-tagged proteasomal subunit (PRE1) essentially as described (28).

[3] = tested on: β-catenin-luciferase turnover (substrate of the SCFβ-TRCP ubiquitin ligase); assay: β-catenin-luciferase turnover in interphase Xenopus extracts stimulated with recombinant axin; conditions: 200 μM compound
Protocol: as §1, §2
Dry compounds were redissolved at 20 mM concentration in DMSO, or a 50:50 water:DMSO mixture in certain cases. These compounds were then diluted ten-fold in XB and mixed thoroughly. For the assay in FIG. 1A, chilled interphase extract was mixed with cyclin BΔ90 (10 μg/ml) and cyc-luc (0.1 μg/ml) in bulk and then 27 μl of extract was pipetted to each well of a chilled 384-well plate. Three microliters of each compound (diluted in XB) was then added to each well, and then compounds mixed thoroughly. Plates were warmed to room temperature. After 70 minutes, 5 μl aliquots were transferred to another plate, and then 30 μl of luciferin reagent was added to each well and luminescence measured. Percent inhibition was calculated as described above. The reported values represent the average of three independent measurments. For the assay in FIG. 1B, interphase extracts were treated with 10 μg/cyclin B 90 for 50 minutes at room temperature and then chilled on ice. Cyc-luc was then added, and then 27 μl of extract was pipetted to each well of a chilled 384-well plate. Three microliters of each compound (diluted in XB) was then added to each well, and then compounds mixed thoroughly. Plates were warmed to room temperature. After 60 minutes, 5 μl aliquots were transferred to another plate, and then 30 μl of luciferin reagent was added to each well and luminescence measured. For the assay in FIG. 1C, recombinant Cdh1 (0.1 μg/ml) and cyc-luc were added to chilled interphase extracts. Extracts were then pipetted and compounds added as above. Plates were warmed to room temperature and incubated for three hours, following which luminescence was measured as above. For the assay in FIG. 1D, chilled interphase extracts received recombinant axin and beta-catenin-luciferase reporter as described (8). Extracts were aliquoted to chilled plates and compounds distributed as described above. Plates were warmed to room temperature, incubated for three hours, and luminescence measured.

Compound: CC(=O)Nc1ccc(SSc2ccc(NC(C)=O)c3cccnc23)c2ncccc12 [Compound 23]
- percent inhibition of cyc-luc turnover, (A) Interphase extracts [1]: 100%
- effect on 20S core peptidase activity [2]: without effect
- percent inhibition, (D) Degradation of a β-catenin reporter protein in interphase extracts stimulated with recombinant axin [3]: 27%

Compound: O=S(=O)(O)c1ccc2cc3c(cc2c1)NN(c1ccc(/C=C/c2ccc(N4Nc5cc6ccc(S(=O)(=O)O)cc6cc5N4)cc2S(=O)(=O)O)c(S(=O)(=O)O)c1)N3 [Compound 59]
- percent inhibition of cyc-luc turnover, (A) Interphase extracts [1]: 97%
- effect on 20S core peptidase activity [2]: without affecting
- percent inhibition, (D) Degradation of a β-catenin reporter protein in interphase extracts stimulated with recombinant axin [3]: 70%

Compound: O=C(Nc1ccc(/C=C/c2ccc(NC(=O)c3cc(S(=O)(=O)O)c4cccnc4c3O)cc2S(=O)(=O)O)c(S(=O)(=O)O)c1)c1cc(S(=O)(=O)O)c2cccnc2c1O [Compound 92]
- percent inhibition of cyc-luc turnover, (A) Interphase extracts [1]: 60%
- effect on 20S core peptidase activity ([2]; listed as C92): does not affect; also recorded: without affecting
- percent inhibition, (D) Degradation of a β-catenin reporter protein in interphase extracts stimulated with recombinant axin [3]: 21%
